Laboratory results: patent publication US10314308B2, “Microbiocidal benzoxaboroles” (SYNGENTA PARTICIPATIONS AG, priority 2015, dated 2019)

Key:
[1] = tested on: Botryotinia Fuckeliana(Botrytis Cinerea); assay: Botryotinia fuckeliana (Botrytis cinerea) / liquid culture (gray mould); format: cell-based; conditions: Vogels broth, 24° C., 3-4 days after application, read-out: disease control (inhibition of growth, photometrically)
Protocol: 9 Botryotinia Fuckeliana(Botrytis Cinerea)/Liquid Culture (Gray Mould) Conidia of the fungus from cryogenic storage were directly mixed into nutrient broth (Vogels broth). After placing a DMSO solution of test compound into a 96-well microtiter plate, the nutrient broth containing the fungal spores was added. The test plates were incubated at 24° C. and the inhibition of growth was determined photometrically 3-4 days after application.

Sclerotinia Sclerotiorum = assay: Sclerotinia sclerotiorum / liquid culture (cottony rot); format: cell-based; conditions: PDB potato dextrose broth, 24° C., 3-4 days after application, read-out: disease control (inhibition of growth, visually)
Protocol: 17 Sclerotinia Sclerotiorum/Liquid Culture (Cottony Rot) Mycelia fragments of a newly grown liquid culture of the fungus were directly mixed into nutrient broth (PDB potato dextrose broth). After placing a (DMSO) solution of the test compounds into a microtiter plate (96-well format) the nutrient broth containing the fungal material was added. The test plates were incubated at 24° C. and the inhibition of growth was determined visually 3-4 days after application.

[2] = tested on: Mycosphaerella Graminicola(Septoria Tritici); assay: Mycosphaerella graminicola (Septoria tritici) / liquid culture (Septoria blotch); format: cell-based; conditions: Zymoseptoria tritici, PDB potato dextrose broth, 24° C., 4-5 days after application, read-out: disease control (inhibition of growth, photometrically)
Protocol: 12 Mycosphaerella Graminicola(Septoria Tritici)/Liquid Culture (Septoria Blotch) Conidia of the fungus from cryogenic storage were directly mixed into nutrient broth (PDB potato dextrose broth). After placing a DMSO solution of test compound into a 96-well microtiter plate, the nutrient broth containing the fungal spores was added. The test plates were incubated at 24° C. and the inhibition of growth was determined photometrically 4-5 days after application.

Fusarium Culmorum = assay: microbe, parasite or virus in culture; format: cell-based; conditions: read-out: disease control (inhibition of growth, photometrically)
[3] = tested on: Mycosphaerella Arachidis(Cercospora Arachidicola); assay: Mycosphaerella arachidis (Cercospora arachidicola) / liquid culture (early leaf spot); format: cell-based; conditions: PDB potato dextrose broth, 24° C., 4-5 days after application, read-out: disease control (inhibition of growth, photometrically)
Protocol: 11 Mycosphaerella Arachidis(Cercospora Arachidicola)/Liquid Culture (Early Leaf Spot) Conidia of the fungus from cryogenic storage were directly mixed into nutrient broth (PDB potato dextrose broth). After placing a DMSO solution of test compound into a 96-well microtiter plate, the nutrient broth containing the fungal spores was added. The test plates were incubated at 24° C. and the inhibition of growth was determined photometrically 4-5 days after application.

[4] = tested on: Glomerella Lagenarium(Colletotrichum Ladenarium); assay: Glomerella lagenarium (Colletotrichum lagenarium) / liquid culture (anthracnose); format: cell-based; conditions: PDB potato dextrose broth, 24° C., 3-4 days after application, read-out: disease control (inhibition of growth, photometrically)
Protocol: 10 Glomerella Lagenarium(Colletotrichum Ladenarium)/Liquid Culture (Anthracnose) Conidia of the fungus from cryogenic storage were directly mixed into nutrient broth (PDB potato dextrose broth). After placing a DMSO solution of test compound into a 96-well microtiter plate, the nutrient broth containing the fungal spores was added. The test plates were incubated at 24° C. and the inhibition of growth was measured photometrically 3-4 days after application.

Pythium Ultimum = assay: Pythium ultimum / liquid culture (seedling damping off); format: cell-based; conditions: Globisporangium ultimum, potato dextrose broth, 24° C., 2-3 days after application, read-out: disease control (inhibition of growth, photometrically)
Gaeumannomyces Graminis = assay: Gaeumannomyces graminis / liquid culture (take-all of cereals); format: cell-based; conditions: PDB potato dextrose broth, 24° C., 4-5 days after application, read-out: disease control (inhibition of growth, photometrically)
Protocol: 13 Gaeumannomyces Graminis/Liquid Culture (Take-all of Cereals) Mycelial fragments of the fungus from cryogenic storage were directly mixed into nutrient broth (PDB potato dextrose broth). After placing a DMSO solution of test compound into a 96-well microtiter plate, the nutrient broth containing the fungal spores is added. The test plates were incubated at 24° C. and the inhibition of growth was determined photometrically 4-5 days after application.

[5] = tested on: Monographella Nivalis(Microdochium Nivale); assay: Monographella nivalis (Microdochium nivale) / liquid culture (foot rot cereals); format: cell-based; conditions: PDB potato dextrose broth, 24° C., 4-5 days after application, read-out: disease control (inhibition of growth, photometrically)
Protocol: 14 Monographella Nivalis(Microdochium Nivale)/Liquid Culture (Foot Rot Cereals) Conidia of the fungus from cryogenic storage were directly mixed into nutrient broth (PDB potato dextrose broth). After placing a DMSO solution of test compound into a 96-well microtiter plate, the nutrient broth containing the fungal spores was added. The test plates were incubated at 24° C. and the inhibition of growth was determined photometrically 4-5 days after application.

[6] = tested on: Thanatephorus Cucumeris(Rhizoctonia Solani); assay: Thanatephorus cucumeris (Rhizoctonia solani) / liquid culture (foot rot, damping-off); format: cell-based; conditions: PDB potato dextrose broth, 24° C., 3-4 days after application, read-out: disease control (inhibition of growth, photometrically)
Protocol: 16 Thanatephorus Cucumeris(Rhizoctonia Solani)/Liquid Culture (Foot Rot, Damping-Off) Mycelia fragments of a newly grown liquid culture of the fungus were directly mixed into nutrient broth (PDB potato dextrose broth). After placing a DMSO solution of the test compounds into a 96-well microtiter plate at an application rate of 200 ppm, the nutrient broth containing the fungal material was added. The test plates were incubated at 24° C. and the inhibition of growth was determined photometrically 3-4 days after application.

Plasmopara Viticola = assay: whole plant or invertebrate; format: in vivo; conditions: foliar, read-out: disease control

Cn1nccc1-c1cc2c(cc1F)COB2O [Compound 10]
≥ 80%: inhibition at 20 ppm [1] | inhibition at 20 ppm (Sclerotinia Sclerotiorum) | inhibition at 20 ppm [2] | inhibition at 20 ppm (Fusarium Culmorum) | inhibition at 20 ppm [3] | inhibition at 20 ppm [4] | inhibition at 20 ppm (Pythium Ultimum)

OB1OCc2cc(Cl)c(-c3cnco3)cc21 [Compound 18]
≥ 80%: inhibition at 20 ppm (Sclerotinia Sclerotiorum) | inhibition at 20 ppm (Gaeumannomyces Graminis) | inhibition at 20 ppm [5] | inhibition at 20 ppm [2] | inhibition at 20 ppm (Fusarium Culmorum) | inhibition at 20 ppm [3] | inhibition at 20 ppm [4] | inhibition at 20 ppm (Pythium Ultimum)

O=Cc1ccc(-c2cc3c(cc2F)COB3O)o1 [Compound 26]
≥ 80%: inhibition at 20 ppm [1] | inhibition at 20 ppm (Sclerotinia Sclerotiorum) | inhibition at 20 ppm [5] | inhibition at 20 ppm [2] | inhibition at 20 ppm (Fusarium Culmorum) | inhibition at 20 ppm [3] | inhibition at 20 ppm [4] | inhibition at 20 ppm (Pythium Ultimum)

CCc1ccc(-c2cc3c(cc2Cl)COB3O)s1 [Compound 35]
≥ 80%: inhibition at 20 ppm (Gaeumannomyces Graminis) | inhibition at 20 ppm [5] | inhibition at 20 ppm [6] | inhibition at 20 ppm [2] | inhibition at 20 ppm (Fusarium Culmorum) | inhibition at 20 ppm [3] | inhibition at 20 ppm [4] | inhibition at 20 ppm (Pythium Ultimum) | pest or weed control at 200 ppm (Plasmopara Viticola)

Cc1ccc(-c2cc3c(cc2Cl)COB3O)o1 [Compound 36]
≥ 80%: inhibition at 20 ppm [1] | inhibition at 20 ppm (Sclerotinia Sclerotiorum) | inhibition at 20 ppm (Gaeumannomyces Graminis) | inhibition at 20 ppm [5] | inhibition at 20 ppm [6] | inhibition at 20 ppm [2] | inhibition at 20 ppm (Fusarium Culmorum) | inhibition at 20 ppm [3] | inhibition at 20 ppm [4] | inhibition at 20 ppm (Pythium Ultimum) | pest or weed control at 200 ppm (Plasmopara Viticola)

OCc1ccc(-c2cc3c(cc2Cl)COB3O)o1 [Compound 40]
≥ 80%: inhibition at 20 ppm [1] | inhibition at 20 ppm (Sclerotinia Sclerotiorum) | inhibition at 20 ppm (Gaeumannomyces Graminis) | inhibition at 20 ppm [5] | inhibition at 20 ppm [2] | inhibition at 20 ppm (Fusarium Culmorum) | inhibition at 20 ppm [3] | inhibition at 20 ppm [4] | inhibition at 20 ppm (Pythium Ultimum)

OB1OCc2cc(Cl)c(-c3cc4ccccc4[nH]3)cc21 [Compound 72]
≥ 80%: inhibition at 20 ppm (Gaeumannomyces Graminis) | inhibition at 20 ppm [5] | inhibition at 20 ppm [6] | inhibition at 20 ppm [2] | inhibition at 20 ppm (Fusarium Culmorum) | inhibition at 20 ppm [3] | inhibition at 20 ppm [4] | inhibition at 20 ppm (Pythium Ultimum) | pest or weed control at 200 ppm (Plasmopara Viticola)

OB1OCc2cc(Cl)c(-c3ccoc3)cc21 [Compound 84]
≥ 80%: inhibition at 20 ppm (Sclerotinia Sclerotiorum) | inhibition at 20 ppm (Gaeumannomyces Graminis) | inhibition at 20 ppm [5] | inhibition at 20 ppm [6] | inhibition at 20 ppm [2] | inhibition at 20 ppm (Fusarium Culmorum) | inhibition at 20 ppm [3] | inhibition at 20 ppm [4] | inhibition at 20 ppm (Pythium Ultimum) | pest or weed control at 200 ppm (Plasmopara Viticola)
